{"source": "patent US20190110971A1", "about": "“COMPOSITIONS FOR MANAGING PLAQUE FORMATION” (THE REGENTS OF THE UNIVERSITY OF CALIFORNIA, priority 2016, published 2019)"}
{"system": "bracket-induced plaque formation (saliva-derived plaques on HA discs with brackets)", "assay": "in vitro bracket-induced biofilm model system, crystal violet assay", "format": "cell-based", "conditions": "in vitro grown plaques from pooled human saliva, FIG. 5B/5C", "excerpt": "These discs were then fitted into 12-well tissue culture plates for the growth of saliva-derived plaques. One unique feature of this system is use of a new culture medium developed by this laboratory (Shi-medium, Tian Y 2010) which allows the biofilm grown in vitro to be very similar to in vivo human plaque.\nA mixed pool of human saliva samples was collected from 10 volunteers to develop in vitro grown plaques on the model system developed above. Amino acids and sugar monomers and analogs were selected mostly from the list of FDA Generally Recognized As Safe (GRAS) compounds (http://www.fda.gov/Food/Ingredients PackagingLabeling/GRAS/SCOGS/ default.htm). The anti-biofilm inhibitory function of these chemicals was assayed with a crystal violet assay (Sharma A 2005), as illustrated in FIG. 5A. The compounds with more than 10× inhibitory effects were further investigated."}
{"molecule": "CC(=O)N[C@H]1C(O)O[C@H](CO)[C@@H](O)[C@@H]1O", "note": "(stereo partly drawn) [N-acyl-Glucosamine, N-acetylglucosamine]", "inhibitory effects against bracket-induced plaque formation": "strong inhibitory effects"}
{"molecule": "NCCCC[C@@H](N)C(=O)O", "note": "[D-Lys, D-lysine]", "inhibitory effects against bracket-induced plaque formation": "strong inhibitory effects"}
{"molecule": "C[C@H](O)[C@@H](N)C(=O)O", "note": "[D-Thr, D-threonine]", "inhibitory effects against bracket-induced plaque formation": "strong inhibitory effects"}
{"molecule": "C[C@@H](N)C(=O)O", "note": "[D-Ala, D-alanine]", "inhibitory effects against bracket-induced plaque formation": "strong inhibitory effects"}
{"molecule": "N=C(N)NCCC[C@H](N)C(=O)O", "note": "[L-Arg, L-arginine]", "inhibitory effects against bracket-induced plaque formation": "strong inhibitory effects"}
{"molecule": "NCCCC[C@H](N)C(=O)O", "note": "[L-Lys, L-lysine]", "inhibitory effects against bracket-induced plaque formation": "strong inhibitory effects"}
